The source of these data is patent EP3771714A1, “NITROGEN-CONTAINING HETEROCYCLES AS PESTICIDES” (Bayer AG, priority 2019, dated 2021).

The structures appear in SMILES notation. Where “and” joins values, the source holds several entries; their conditions need not be identical. Equal values may be shown once. Read-outs that look alike come from different tables or passages of the source.

One data set deals with Diabrotica balteata. Description: Diabrotica balteata spray test. It is filed as in vivo. To be noted: 500 g/ha (=160 µg/Kavität); wheat (Triticum aestivum) with beetle larvae; after 7 days; 100 % = all wheat plants grown as in untreated, uninfected control. The source says: (§1) Zur Herstellung einer zweckmäßigen Wirkstoffzubereitung löst man 1 Gewichtsteil Wirkstoff mit den angegebenen Gewichtsteilen Lösungsmittel und füllt mit Wasser, welches eine Emulgatorkonzentration von 1000 ppm enthält, bis zum Erreichen der gewünschten Konzentration auf. Zur Herstellung weiterer Testkonzentrationen wird mit emulgatorhaltigem Wasser verdünnt.
Vorgequollene Weizenkörner (Triticum aestivum) werden in einer mit Agar und etwas Wasser gefüllten Multiwell-Platte für einen Tag inkubiert (5 Saatkörner pro Kavität). Die gekeimten Weizenkörner werden mit einer Wirkstoffzubereitung der gewünschten Konzentration gespritzt. Anschließend wird jede Kavität mit 10-20 Käferlarven von Diabrotica balteata infiziert.
Nach 7 Tagen wird die Wirkung in % bestimmt. Dabei bedeutet 100 %, dass alle Weizenpflanzen wie in der unbehandelten, nicht infizierten Kontrolle gewachsen sind; 0 % bedeutet, dass keine Weizenpflanze gewachsen ist.

In data set [1] the test system is Myzus persicae. Briefly: Myzus persicae spray test. In kind it is in vivo. The conditions noted are these: 100 g/ha; Chinese cabbage leaf discs (Brassica pekinensis), all stages; after 5 days.
Text: Bei diesem Test zeigten z. B. die folgenden Verbindungen der Herstellungsbeispiele Wirkung von 100 % bei einer Aufwandmenge von 20 ppm: 1. Myzus persicae - Sprühtest
as §1
Chinakohlblattscheiben (Brassica pekinensis), die von allen Stadien der Grünen Pfirsichblattlaus (Myzus persicae) befallen sind, werden mit einer Wirkstoffzubereitung der gewünschten Konzentration gespritzt.
(§2) Nach 5 Tagen wird die Wirkung in % bestimmt. Dabei bedeutet 100 %, dass alle Blattläuse abgetötet wurden; 0 % bedeutet, dass keine Blattläuse abgetötet wurden.

Data set [2] can be described thus: logP determination by HPLC on reversed-phase (C18) columns, OECD Guideline 117. It is filed as physicochemical. An excerpt:
Die Eichung erfolgt mit unverzweigten Alkan-2-onen (mit 3 bis 16 Kohlenstoffatomen), deren logP-Werte bekannt sind (Bestimmung der logP-Werte anhand der Retentionszeiten durch lineare Interpolation zwischen zwei aufeinander folgenden Alkanonen).

Another data set deals with Phaedon cochleariae. Briefly: Phaedon cochleariae spray test. It is filed as in vivo. The conditions noted are these: 500 g/ha; Chinese cabbage leaf discs (Brassica pekinensis), larvae; after 7 days.
Text: Bei diesem Test zeigten z. B. die folgenden Verbindungen der Herstellungsbeispiele Wirkung von 100 % bei einer Aufwandmenge von 500 g/ha: 1. Phaedon cochleariae - Sprühtest
as §1
Chinakohlblattscheiben (Brassica pekinensis) werden mit einer Wirkstoffzubereitung der gewünschten Konzentration gespritzt und nach dem Abtrocknen mit Larven des Meerrettichblattkäfers (Phaedon cochleariae) besetzt.
Nach 7 Tagen wird die Wirkung in % bestimmt. Dabei bedeutet 100 %, dass alle Käferlarven abgetötet wurden; 0 % bedeutet, dass keine Käferlarven abgetötet wurden.

For another data set, the system named is Nezara viridula. Briefly: Nezara viridula spray test. It is filed as in vivo. To be noted: 500 g/ha; barley plants (Hordeum vulgare) with larvae; after 4 days.
Text: Bei diesem Test zeigten z. B. die folgenden Verbindungen der Herstellungsbeispiele Wirkung von 90 % bei einer Aufwandmenge von 100 g/ha: 1, 5, 6, 9. Nezara viridula -Sprühtest
as §1
Gerstenpflanzen (Hordeum vulgare), die mit Larven der Grünen Reiswanze (Nezara viridula) infiziert sind, werden mit einer Wirkstoffzubereitung der gewünschten Konzentration gespritzt.
Nach 4 Tagen wird die Wirkung in % bestimmt. Dabei bedeutet 100 %, dass alle Reiswanzen abgetötet wurden; 0 % bedeutet, dass keine Reiswanzen abgetötet wurden.

The next data set deals with Nilaparvata lugens. Briefly: Nilaparvata lugens test. In kind it is in vivo. To be noted: 500 g/ha; rice plants (Oryza sativa); after 4 days.
Text: Bei diesem Test zeigten z. B. die folgenden Verbindungen der Herstellungsbeispiele Wirkung von 90 % bei einer Aufwandmenge von 500 g/ha: 1. Nilaparvata lugens -Test
as §1
Reispflanzen (Oryza sativa) werden mit der Wirkstoffzubereitung der gewünschten Konzentration gespritzt und anschließend mit der Braunrückigen Reiszikade (Nilaparvata lugens) infiziert.
Nach 4 Tagen wird die Wirkung in % bestimmt. Dabei bedeutet 100 %, dass alle Reiszikaden abgetötet wurden; 0 % bedeutet, dass keine Reiszikaden abgetötet wurden.

The next data set relates to Ctenocephalides felis. Description: Ctenocephalides felis oral test. It is filed as in vivo. To be noted: 100 ppm in citrated cattle blood; adult cat fleas; after 2 days. Here is the method:
Ctenocephalides felis - Oraltest
Zwecks Herstellung einer zweckmäßigen Wirkstoffzubereitung vermischt man 10 mg Wirkstoff mit 0,5 ml Dimethylsulfoxid. Durch Verdünnen mit citriertem Rinderblut erhält man die gewünschte Konzentration.
Ca. 20 nüchterne adulte Katzenflöhe (Ctenocephalides felis) werden in eine Kammer eingesetzt, die oben und unten mit Gaze verschlossen ist. Auf die Kammer wird ein Metallzylinder gestellt, dessen Unterseite mit Parafilm verschlossen ist. Der Zylinder enthält die Blut-Wirkstoffzubereitung, die von den Flöhen durch die Parafilmmembran aufgenommen werden kann.
Nach 2 Tagen wird die Abtötung in % bestimmt. Dabei bedeutet 100 %, dass alle Flöhe abgetötet wurden; 0 % bedeutet, dass keiner der Flöhe abgetötet wurde.

Data set [3] has as its system Myzus persicae. Description: Myzus persicae oral test. It is filed as in vivo. The conditions noted are these: 20 ppm; mixed population, uptake through Parafilm; after 5 days. Here is the method: Bei diesem Test zeigten z. B. die folgenden Verbindungen der Herstellungsbeispiele Wirkung von 100 % bei einer Aufwandmenge von 500 g/ha (=160 µg/Kavität): 1, 2, 3, 5, 6, 7, 8, 9, 10, 11, 12. Myzus persicae - Oraltest
Zur Herstellung einer zweckmäßigen Wirkstoffzubereitung löst man 1 Gewichtsteil Wirkstoff mit den angegebenen Gewichtsteilen Lösungsmittel und füllt mit Wasser bis zum Erreichen der gewünschten Konzentration auf.
50 µl der Wirkstoffzubereitung werden in Mikrotiterplatten überführt und mit 150µl IPL41Insektenmedium (33% + 15% Zucker) auf eine Endvolumen von 200 µl aufgefüllt. Anschließend werden die Platten mit Parafilm verschlossen, durch den eine gemischte Population der Grünen Pfirsichblattlaus (Myzus persicae), die sich in einer zweiten Mikrotiterplatte befindet, hindurchstechen und die Lösung aufnehmen kann.
as §2

The test system of the next data set is Tetranychus urticae. Briefly: Tetranychus urticae spray test, OP-resistant. It is filed as in vivo. The conditions noted are these: 500 g/ha; bean leaf discs (Phaseolus vulgaris), all stages, OP-resistent; after 6 days.
Text: Bei diesem Test zeigten z. B. die folgenden Verbindungen der Herstellungsbeispiele Wirkung von 100 % bei einer Aufwandmenge von 500 g/ha: 1. Tetranychus urticae - Sprühtest, OP-resistent
as §1
Bohnenblattscheiben (Phaseolus vulgaris), die von allen Stadien der Gemeinen Spinnmilbe (Tetranychus urticae) befallen sind, werden mit einer Wirkstoffzubereitung der gewünschten Konzentration gespritzt.
Nach 6 Tagen wird die Wirkung in % bestimmt. Dabei bedeutet 100 %, dass alle Spinnmilben abgetötet wurden; 0 % bedeutet, dass keine Spinnmilben abgetötet wurden.

Setting [4] is: pH 7.8, HPLC-MS/UPLC-MS neutral (method [b], pH 7,8), read-out: LogP-Wert.
The mark [5] stands for this setting: HPLC-MS (ESI-positiv), acidic or neutral range not given.
[6] abbreviates: reversed-phase (C18) HPLC column, HPLC-MS (ESI-positiv), acidic or neutral range not given, read-out: LogP-Wert.
The mark [7] stands for this setting: HPLC-MS/UPLC-MS neutral (method [b], pH 7,8).

As to `CCc1csc(N=c2ccccn2-c2ccc(C(F)(F)F)nc2)n1` [Beispiel 5], the Wirkung in % is reported as 100% in the data set on Diabrotica balteata and 90% with Myzus persicae [1]. This compound yielded a chromatographic logP in data set [2] (pH 2.7, LogP-Wert (HCOOH)) of 1.13.
In data set [2] (pH 7.8, LogP-Wert), `CCOC(=O)NC(=S)N=c1ccccn1-c1ccc(C(F)(F)F)nc1` [VI-1, Ethyl N-[1-[(6-trifluormethyl-3-pyridyl)]-2-pyridylidene]carbamothioylcarbamat] displayed a chromatographic logP of 1.71.
In the case of `FC(F)(F)c1ccc(-n2ccccc2=Nc2nc(C3(F)CC3)cs2)cn1` [Beispiel 9], the Wirkung in % is given as 100% with Diabrotica balteata and 90% in the data set on Myzus persicae [1]. The compound further had a chromatographic logP in [2] (pH 2.7, LogP-Wert (HCOOH)) of 2.04.
In the case of `N#CC1(c2csc(N=c3ccccn3-c3ccc(C(F)(F)F)nc3)n2)CC1` [Beispiel 8], the Wirkung in % in the data set on Diabrotica balteata and in the data set on Myzus persicae [1] was 100% each time. In addition, the chromatographic logP in data set [2] (pH 2.7, LogP-Wert (HCOOH)) worked out at 2.39.
Consider `FC(F)(F)c1ccc(-n2ccccc2=S)cn1` [II-1, 6'-Trifluormethyl-[1(2H), 3'-bipyridin]-2-thion], for which the chromatographic logP in data set [2] (setting [4]) turned out to be 1.67.
On to `FC(F)c1ccc(-n2ccccc2=S)cn1` [II-2, 6'-Difluormethyl-[1(2H), 3'-bipyridin]-2-thion], for which the LogP-Wert in data set [2] was 1,23. The compound also registered a chromatographic logP in data set [2] (LogP-Wert) of 1.18.
As to `FC(F)(F)c1ccc(-n2ccccc2=Nc2nc(C(F)(F)F)cs2)cn1` [Beispiel 3, 1-[(6-Trifluormethyl-3-pyridyl]-N-(4-trifluormethylthiazol-2-yl))pyridin-2-imin], the Wirkung in % in the data set on Diabrotica balteata and in the data set on Myzus persicae [1] was 100% throughout. For the same compound, in data set [2] (setting [5]), the LogP-Wert result is given as “LogP-Wert = 3,60”.
For `CSc1cccc[n+]1-c1ccc(C(F)(F)F)nc1` [III-1], the chromatographic logP in data set [2] (setting [6]) stood at 0.57.
Take `NC(=S)N=c1ccccn1-c1ccc(C(F)(F)F)nc1` [VII-1, N-[1-[(6-Trifluormethyl-3-pyridinyl)]-2(1H)-pyridinyliden]-thioharnstoff]: the LogP-Wert in [2] (setting [5]) was 1,12 and 1,14.
With `N=c1ccccn1-c1ccc(C(F)(F)F)nc1` [IV-1, 6'-Trifluormethyl-[1(2H), 3'-bipyridin]-2-imin-hydrogeniodid], the chromatographic logP in data set [2] (setting [6]) came to 2.17.
In the data set on Diabrotica balteata, `FC(F)(F)c1ccc(-n2ccccc2=Nc2nc(C(F)(F)C(F)(F)F)cs2)cn1` [Beispiel 7] displayed a Wirkung in % of 100%. Moreover, in data set [2] (pH 2.7, LogP-Wert (HCOOH)), the chromatographic logP was determined as 4.03.
Consider `Cc1csc(N=c2ccccn2-c2ccc(C(F)(F)F)nc2)n1` [Beispiel 1], for which the Wirkung in % was determined as 100% in the data set with Phaedon cochleariae; 100% with Diabrotica balteata; 90% with Myzus persicae [1]; 90% in the data set on Nezara viridula; 100% in the data set on Nilaparvata lugens; 100% with Myzus persicae [3]. Besides, the Wirkung in % with Tetranychus urticae stood at 90%. The LogP-Wert result in data set [2] (setting [5]) is “LogP-Wert = 1,08”. Further, in the data set on Ctenocephalides felis, the “Abtötung in % (Wirkung)” value is 80%.
Regarding `FC(F)(F)c1ccc(-n2ccccc2=Nc2ncccn2)cn1` [Beispiel 4, 1-[(6-Trifluormethyl-3-pyridyl]-N-(pyrimid-2-yl))pyridin-2-imin], the LogP-Wert result in data set [2] (setting [5]) was “LogP-Wert = 1,38”.
Regarding `CC1(c2csc(N=c3ccccn3-c3ccc(C(F)(F)F)nc3)n2)CC1` [Beispiel 10], in the data set on Diabrotica balteata, the Wirkung in % was found to be 100%. In data set [2] (pH 7.8, LogP-Wert (neutral)), the chromatographic logP amounted to 3.99.
`CSc1cccc[n+]1-c1ccc(C(F)F)nc1` [III-2] gave a chromatographic logP in data set [2] (LogP-Wert) of 0.04.
Consider `N#CC1(c2csc(N=c3ccccn3-c3ccc(C(F)F)nc3)n2)CC1` [Beispiel 12], for which, in the data set with Diabrotica balteata, the Wirkung in % was found to be 100%. In data set [2] (pH 7.8, LogP-Wert (neutral)), this compound yielded a chromatographic logP of 2.65.
In [2] (pH 7.8, LogP-Wert), `NC(=S)N=c1ccccn1-c1ccc(C(F)F)nc1` [VII-2, N-[1-[(6-Difluormethyl-3-pyridinyl)]-2(1H)-pyridinyliden]-thioharnstoff] had a chromatographic logP of 0.7.
The compound `CCOC(=O)NC(=S)N=c1ccccn1-c1ccc(C(F)F)nc1` [VI-2, Ethyl N-[1-[(6-difluormethyl-3-pyridyl)]-2-pyridylidene]carbamothioylcarbamat] showed a chromatographic logP in data set [2] (pH 7.8, LogP-Wert) of 1.28.
For `FC(F)(F)c1ccc(-n2ccccc2=Nc2nc(C3CC3)cs2)cn1` [Beispiel 6], the Wirkung in % in the data set on Diabrotica balteata was found to be 100%; with Myzus persicae [1], 90%. Further, the chromatographic logP in data set [2] (pH 2.7, LogP-Wert (HCOOH)) was determined as 1.34.
For `N=C(N=c1ccccn1-c1ccc(C(F)(F)F)nc1)SCC(=O)C(F)(F)F` [N-[1-[(6-trifluormethyl-3-pyridyl)]-2-pyridyliden]-imidothio-(3,3,3-trifluoro-2-oxopropyl)-ester], in [2] (setting [7]), the LogP-Wert is reported as 2,39. In addition, in data set [2] (setting [4]), the chromatographic logP was 2.37.
On to `CC(C)(C)c1csc(N=c2ccccn2-c2ccc(C(F)(F)F)nc2)n1` [Beispiel 11], for which the Wirkung in % in the data set on Diabrotica balteata worked out at 100%. In addition, the chromatographic logP in data set [2] (pH 2.7, LogP-Wert (HCOOH)) is 1.47.
In the data set on Diabrotica balteata, `FC(F)c1ccc(-n2ccccc2=Nc2nc(C3(F)CC3)cs2)cn1` [Beispiel 2] had a Wirkung in % of 100%. Besides, the LogP-Wert result in data set [2] (setting [7]) was “LogP-Wert = 3,02”.
